# Measurements published in patent US20260263550A1, “METHODS AND COMPOSITIONS FOR TREATING, PREVENTING, INHIBITING, AMELIORATING OR DELAYING THE ONSET OF OPHTHALMIC CONDITIONS” (Stealth BioTherapeutics Inc., priority 2021, published 2026).
# Experiment: in vivo
# Settings: cynomolgus monkey, sc; for concentration at 29 study day: Average Conc.
# Experimental: Male and female cynomolgus monkeys were divided into four groups (Groups 1 to 4). Groups 1 and 4 consisted of five males and five females each and Groups 2 and 3 consisted of three males and three females each. Animals were dosed via SC injection once daily for 28 consecutive days. Group 1 animals received the control article, 0.9% sodium chloride injection, USP (saline). Group 2, 3, and 4 animals received the test article, compound of Formula IIa, at dose levels of 2, 5, and 15 mg/kg/day, respectively. Three males and three females from Groups 1 to 3, and three males and one female from Group 4 were necropsied on Day 29 (terminal necropsy). Two males and two females from Groups 1 and 4 were necropsied on Day 42 (recovery necropsy), after a 13-day treatment-free period. […] Safety endpoints included daily clinical and weekly detailed observations, food evaluation, dermal scoring of the injection site, body weight, ophthalmology, electrocardiography (ECG), hematology, coagulation, serum chemistry, and urinalysis. Blood was collected at multiple time points. At termination, gross observations and organ weights were recorded, and eye/optic nerve tissue samples were collected for microscopic evaluation and biodistribution assays.
# Preparation of dose formulations. Dose formulation preparations were performed once weekly in a biosafety cabinet using clean techniques. The test article dosing formulations were prepared by diluting the 100 mg/mL (nominal concentration) compound of Formula IIa stock solution in the appropriate volume of 0.9% Sodium Chloride Injection, USP. All formulations (including Group 1, control) were filtered using a 0.22 μm polyethersulfone (PES) syringe filter. Osmolarity and pH were measured and recorded, then the dosing formulations were aliquoted into a sufficient number of sterile glass vials for daily use over one week. All aliquots were stored in a refrigerator set to maintain 4° C. and used within 7 days after preparation.
# Test system. The test system was cynomolgus monkey, originating from Cambodia, supplied by Worldwide Primates. The animals were identified by unique skin tattoos. The body weight of the animals ranged from 1.6. to 2.4 kg at initiation of dosing and the ages ranged from 2.0 to 3.1 years at the initiation of dosing. For acclimation, there were 18 males and 18 females. For dosing, 16 males and 16 females were used.
# Administration of dose formulations. The dose formulations were administered to appropriate animals by subcutaneous injection into the interscapular area once daily for 28 days using disposable syringe and needle. Four subcutaneous dose sites (upper left/right and lower left/right) were designated on the dorsal back using permanent marker or tattoo placed during acclimation avoiding the spine, with no edges overlapping and with a maximum practical distance between the dose sites. The designated dosing sites were shaved, and injection was rotated among them. If a designated site was not suitable for administration (e.g., due to wound, scab/crust, etc.), the next suitable site was used for dosing and appropriately documented.
# Necropsy. Animals were fasted overnight prior to termination. Following blood collection on the day of necropsy, animals were sedated, weighed, and euthanized by an overdose of euthanasia solution, followed by whole body perfusion flush with phosphate buffered saline. Animals were subjected to a complete macroscopic examination and tissue collection. Bone marrow smears were prepared from the sternum at scheduled necropsy. Two females were necropsied early on Days 25 and 27. Blood samples (hematology, coagulation, and serum chemistry) were collected prior to euthanasia, after which a complete macroscopic examination was performed.
# Tissue collection and preservation. Left eyes and optic nerves were fixed in a solution of 2.5% NBF and 3% Glutaraldehyde, and right eyes and optic nerves were frozen for biodistribution.
# Biodistribution analysis—right eye and optic nerve. […]
# [1] = male, 15 mg/kg/day, Average Concentration, Aqueous Humor
# [2] = male, 15 mg/kg/day, Average Concentration, Choroid
# [3] = male, 15 mg/kg/day, Average Concentration, Conjunctiva
# [4] = male, 15 mg/kg/day, Average Concentration, Cornea
# [5] = male, 15 mg/kg/day, Average Concentration, ICB (iris/ciliary body)
# [6] = male, 15 mg/kg/day, Average Concentration, Optic Nerve
# [7] = male, 15 mg/kg/day, Average Concentration, Retina
# [8] = male, 15 mg/kg/day, Average Concentration, Sclera
# [9] = male, 15 mg/kg/day, Average Concentration, Vitreous Humor
smiles,measurement,setting,value
"Cc1cc(O)cc(C)c1C[C@H](NC(=O)[C@H](N)CCCNC(=N)N)C(=O)N[C@@H](CCCCN)c1nc(Cc2ccccc2)no1.Cl.Cl.Cl [Formula IIa, (R)-2-amino-N—((S)-1-(((S)-5-amino-1-(3-benzyl-1,2,4-oxadiazol-5-yl)pentyl)amino)-3-(4-hydroxy-2,6-dimethylphenyl)-1-oxopropan-2-yl)-5-guanidinopentanamide]",Average Concentration,2 mg/kg,<LLOQ
same,Conc.,2 mg/kg,<LLOQ
same,Concentration,2 mg/kg,<LLOQ
same,Average Concentration,5 mg/kg,<LLOQ
same,Conc.,5 mg/kg,<LLOQ
same,Concentration,5 mg/kg,<LLOQ
same,Average Concentration,15 mg/kg,<LLOQ
same,Conc.,15 mg/kg,<LLOQ
same,Concentration,15 mg/kg,<LLOQ
same,concentration at 29 study day,"female, 2 mg/kg",17500 ng/g
same,concentration at 29 day,"female, 2 mg/kg/day, Average Concentration, Aqueous Humor",2.76 ng/mL
same,concentration at 29 day,"female, 2 mg/kg/day, Average Concentration, Choroid",2500 ng/g
same,concentration at 29 day,"female, 2 mg/kg/day, Average Concentration, Conjunctiva",835 ng/g
same,concentration at 29 day,"female, 2 mg/kg/day, Average Concentration, Cornea",27.2 ng/g
same,concentration at 29 day,"female, 2 mg/kg/day, Average Concentration, ICB (iris/ciliary body)",375 ng/g
same,concentration at 29 day,"female, 2 mg/kg/day, Average Concentration, Optic Nerve",17500 ng/g
same,concentration at 29 day,"female, 2 mg/kg/day, Average Concentration, Retina",7390 ng/g
same,concentration at 29 day,"female, 2 mg/kg/day, Average Concentration, Sclera",446 ng/g
same,concentration at 29 day,"female, 2 mg/kg/day, Average Concentration, Vitreous Humor",13.1 ng/mL
same,concentration at 29 day,"female, 2 mg/kg/day, Concentration (ng/g), Cornea (individual animals)",53.4 ng/g
same,concentration at 29 day,"female, 2 mg/kg/day, Concentration (ng/mL), Cornea (individual animals)",2.67 ng/mL
same,concentration at 29 study day,"female, 5 mg/kg",31800 ng/g
same,concentration at 29 day,"female, 5 mg/kg/day, Average Concentration, Aqueous Humor",25.9 ng/mL
same,concentration at 29 day,"female, 5 mg/kg/day, Average Concentration, Choroid",3210 ng/g
same,concentration at 29 day,"female, 5 mg/kg/day, Average Concentration, Conjunctiva",1770 ng/g
same,concentration at 29 day,"female, 5 mg/kg/day, Average Concentration, Cornea",56.1 ng/g
same,concentration at 29 day,"female, 5 mg/kg/day, Average Concentration, ICB (iris/ciliary body)",800 ng/g
same,concentration at 29 day,"female, 5 mg/kg/day, Average Concentration, Optic Nerve",31800 ng/g
same,concentration at 29 day,"female, 5 mg/kg/day, Average Concentration, Retina",20100 ng/g
same,concentration at 29 day,"female, 5 mg/kg/day, Average Concentration, Sclera",837 ng/g
same,concentration at 29 day,"female, 5 mg/kg/day, Average Concentration, Vitreous Humor",23.3 ng/mL
same,concentration at 42 day,"female, 15 mg/kg/day, Average Concentration, Aqueous Humor",9.83 ng/mL
same,concentration at 42 day,"female, 15 mg/kg/day, Average Concentration, Choroid",27600 ng/g
same,concentration at 42 day,"female, 15 mg/kg/day, Average Concentration, Conjunctiva",4540 ng/g
same,concentration at 42 day,"female, 15 mg/kg/day, Average Concentration, Cornea",149 ng/g
same,concentration at 42 day,"female, 15 mg/kg/day, Average Concentration, ICB (iris/ciliary body)",3160 ng/g
same,concentration at 42 day,"female, 15 mg/kg/day, Average Concentration, Optic Nerve",40800 ng/g
same,concentration at 42 day,"female, 15 mg/kg/day, Average Concentration, Retina",67000 ng/g
same,concentration at 42 day,"female, 15 mg/kg/day, Average Concentration, Sclera",4700 ng/g
same,concentration at 42 day,"female, 15 mg/kg/day, Average Concentration, Vitreous Humor",62.7 ng/mL
same,concentration at 42 day,"female, 15 mg/kg/day, Concentration (ng/g), Sclera (individual animals)",5140 ng/g
same,concentration at 29 study day,"male, 2 mg/kg",22000 ng/g
same,"Concentration, Aqueous Humor (individual animals)","male, 2 mg/kg/day, 29 day",2.94 ng/mL
same,concentration at 29 day,"male, 2 mg/kg/day, Average Concentration, Aqueous Humor",2.31 ng/mL
same,concentration at 29 day,"male, 2 mg/kg/day, Average Concentration, Choroid",1890 ng/g
same,concentration at 29 day,"male, 2 mg/kg/day, Average Concentration, Conjunctiva",603 ng/g
same,concentration at 29 day,"male, 2 mg/kg/day, Average Concentration, Cornea",39.3 ng/g
same,concentration at 29 day,"male, 2 mg/kg/day, Average Concentration, ICB (iris/ciliary body)",354 ng/g
same,concentration at 29 day,"male, 2 mg/kg/day, Average Concentration, Optic Nerve",22000 ng/g
same,concentration at 29 day,"male, 2 mg/kg/day, Average Concentration, Retina",2770 ng/g
same,concentration at 29 day,"male, 2 mg/kg/day, Average Concentration, Sclera",701 ng/g
same,concentration at 29 day,"male, 2 mg/kg/day, Average Concentration, Vitreous Humor",11.2 ng/mL
same,concentration at 29 day,"male, 2 mg/kg/day, Concentration, Aqueous Humor (individual animals)",4 ng/mL
same,concentration at 29 study day,"male, 5 mg/kg",26300 ng/g
same,concentration at 29 day,"male, 5 mg/kg/day, Average Concentration, Aqueous Humor",5.29 ng/mL
same,concentration at 29 day,"male, 5 mg/kg/day, Average Concentration, Choroid",4060 ng/g
same,concentration at 29 day,"male, 5 mg/kg/day, Average Concentration, Conjunctiva",3560 ng/g
same,concentration at 29 day,"male, 5 mg/kg/day, Average Concentration, Cornea",64 ng/g
same,concentration at 29 day,"male, 5 mg/kg/day, Average Concentration, ICB (iris/ciliary body)",1230 ng/g
same,concentration at 29 day,"male, 5 mg/kg/day, Average Concentration, Optic Nerve",26300 ng/g
same,concentration at 29 day,"male, 5 mg/kg/day, Average Concentration, Retina",5760 ng/g
same,concentration at 29 day,"male, 5 mg/kg/day, Average Concentration, Sclera",1820 ng/g
same,concentration at 29 day,"male, 5 mg/kg/day, Average Concentration, Vitreous Humor",13.3 ng/mL
same,concentration at 29 day,[1],14.5 ng/mL
same,concentration at 42 day,[1],3.82 ng/mL
same,concentration at 29 day,[2],8790 ng/g
same,concentration at 42 day,[2],7880 ng/g
same,concentration at 29 day,[3],5430 ng/g
same,concentration at 42 day,[3],4380 ng/g
same,concentration at 29 day,[4],195 ng/g
same,concentration at 42 day,[4],34.8 ng/g
same,concentration at 29 day,[5],3910 ng/g
same,concentration at 42 day,[5],1410 ng/g
same,concentration at 29 day,[6],60000 ng/g
same,concentration at 42 day,[6],91500 ng/g
same,concentration at 29 day,[7],26100 ng/g
same,concentration at 42 day,[7],30200 ng/g
same,concentration at 29 day,[8],2260 ng/g
same,concentration at 42 day,[8],3870 ng/g
same,concentration at 29 day,[9],48.8 ng/mL
same,concentration at 42 day,[9],45.3 ng/mL
same,concentration at 42 day,"male, 15 mg/kg/day, Concentration (ng/g), Cornea (individual animals)",34.6 ng/g
same,concentration at 42 day,"male, 15 mg/kg/day, Concentration (ng/mL), Cornea (individual animals)",1.73 ng/mL
